Data taken from patent US5654399A, “Tetrapeptide derivative having antitumor activity” (Teikoku Hormone Mfg. Co., Ltd., priority 1991, dated 1997).
In brackets after ≈: the same amount, converted by molar mass.

System: lymphocytic leukemia P388 cells
Assay: screening of cytostatic activity using lymphocytic leukemia P388 cells
Format: cell-based
From the text: The screening of cytostatic activity was made using lymphocytic leukemia P388 cells.

With CC[C@H](C)[C@@H]([C@@H](CC(=O)N1CCC[C@H]1[C@H](OC)[C@@H](C)C(=O)N[C@@H](Cc1ccccc1)c1nccs1)OC)N(C)C(=O)[C@@H](NC(=O)[C@H](C(C)C)N(C)C)C(C)C [Dolastatin 10] the ED50 was 0.7 ng/mL (≈ 0.892 nM).
